Data as given in patent US20140073639A1 (priority 2012, published 2014).
Values after ≈ are worked out from the molar mass of the structure shown. Values joined by “and” are separate entries in the source; they are usually repeats but may differ in a detail not shown here. Equal values may be shown once. Read-outs that look alike come from different tables or passages of the source.

Assays:
S. aureus RN4220 [1] = test: microbe, parasite or virus in culture; type: cell-based; conditions: Staphylococcus aureus, 37° C., 24 hours
B. anthracis ΔSterne = type: cell-based
S. aureus strain RN4220 = type: cell-based, Staphylococcus aureus
[2] = tested on: Gram-positive organisms that also encode 2-epimerases; type: cell-based
B. anthracis Sterne = type: in vivo, C57BL/6 mice
S. aureus RN4220 [3] = type: cell-based
B. Anthracis = test: microbe, parasite or virus in culture; type: cell-based; conditions: for inhibition at 3 µM / inhibition at 10 µM / inhibition at 30 µM: Bacillus anthracis; for inhibition at 3 µM: read-out: B. Anthracis 3 μM (growth inhibition); for inhibition at 10 µM: read-out: B. Anthracis 10 μM (growth inhibition); for inhibition at 30 µM: read-out: B. Anthracis 30 μM (growth inhibition)
S. MRSA = test: microbe, parasite or virus in culture; type: cell-based; conditions: for inhibition at 3 µM / inhibition at 10 µM / inhibition at 30 µM: Staphylococcus aureus, MRSA; for inhibition at 3 µM: read-out: S. MRSA 3 μM (growth inhibition); for inhibition at 10 µM: read-out: S. MRSA 10 μM (growth inhibition); for inhibition at 30 µM: read-out: S. MRSA 30 μM (growth inhibition)
[4] = type: cell-based

SMILES	inhibition at 3 µM (B. Anthracis)	inhibition at 10 µM (B. Anthracis)	inhibition at 30 µM (B. Anthracis)	inhibition at 3 µM (S. MRSA)	inhibition at 10 µM (S. MRSA)	inhibition at 30 µM (S. MRSA)	MIC, 25% Serum [4]	MIC, No Serum [4]	other results
O=C(O)C(Cc1ccccc1)N1C(=O)/C(=C\c2ccc(-c3ccc(Br)cc3)s2)NC1=S (centres unmarked) [Epimerox, 2-{4-[5-(4-bromophenyl)-thiophen-2-ylmethylene]-5-oxo-2-thioxo-imidazolidin-1-yl}-3-phenyl-propionic acid]									MIC (S. aureus RN4220 [1]): 8 µg/mL and 16 µM; concentrations that effectively blocked growth (B. anthracis ΔSterne): above 3 μM; Epimerox concentrations at which strain did not grow (S. aureus strain RN4220): above 7.5 μm1^−1; growth of S. aureus (S. aureus strain RN4220): grew very poorly; growth of many other Gram-positive organisms [2]: inhibited the growth; B. anthracis in the major organs (B. anthracis Sterne; after 2 days): not observed; B. anthracis in the major organs (B. anthracis Sterne; at 20 hours): detected; animals survived 14 days (B. anthracis Sterne; mouse, in vivo): 100% and 66%; MIC plateau, serial passage (S. aureus RN4220 [3]): 12 μg m1^−1; starting MIC, serial passage (S. aureus RN4220 [3]): 5.0 μg m1^−1
CCC(C(=O)NS(C)(=O)=O)N1C(=O)/C(=C\c2ccc(-c3ccc(Cl)c(Cl)c3)o2)NC1=S (centres unmarked) [Cmpd 59]	6.4%	6.23%	19.6%	1.71%	2.56%	0.06%	>250 µM	125 µM (≈ 62.8 µg/mL)	
O=C(O)C(Cc1ccccc1)N1C(=O)/C(=C\c2ccc(-c3ccc(Cl)c(Cl)c3)o2)NC1=S (centres unmarked) [Cmpd 46]							>250 µM	15.6 µM (≈ 7.6 µg/mL)	B. Anthracis 3 μM (growth inhibition) (B. Anthracis): 108.4; B. Anthracis 10 μM (growth inhibition) (B. Anthracis): 108.46; B. Anthracis 30 μM (growth inhibition) (B. Anthracis): 106.96; S. MRSA 3 μM (growth inhibition) (S. MRSA): −17.39; S. MRSA 10 μM (growth inhibition) (S. MRSA): 93.71; S. MRSA 30 μM (growth inhibition) (S. MRSA): 103.37
O=C([O-])C(Cc1ccccc1)N1C(=O)/C(=C\c2ccc(-c3ccc(Cl)c(Cl)c3)o2)NC1=S.[Na+] (centres unmarked) [Cmpd 65]							>250 µM	7.8 µM	B. Anthracis 3 μM (growth inhibition) (B. Anthracis): 108.67; B. Anthracis 10 μM (growth inhibition) (B. Anthracis): 107.86; B. Anthracis 30 μM (growth inhibition) (B. Anthracis): 104.01; S. MRSA 3 μM (growth inhibition) (S. MRSA): 0.9; S. MRSA 10 μM (growth inhibition) (S. MRSA): 104.72; S. MRSA 30 μM (growth inhibition) (S. MRSA): 105.68
O=C1Nc2cc(Cl)c(Br)cc2/C1=C1/NC(=S)N(C(Cc2ccccc2)C(=O)O)C1=O (centres unmarked) [Cmpd 32]	11.3%	40.2%	98.8%	-11.9%	-19.4%	93.8%	>250 µM		
O=C(O)[C@H](Cc1ccccc1)N1C(=O)/C(=C\c2ccc(-c3ccc(Cl)c(Cl)c3)o2)NC1=S [Cmpd 48]	-0.39%	108%	107%	-16.1%	80.6%	104%	250 µM (≈ 122 µg/mL)	7.8 µM (≈ 3.8 µg/mL)	
O=C(O)C(Cc1ccccc1)N1C(=O)/C(=C\c2ccc(-c3ncc(Cl)cc3Cl)o2)NC1=S (centres unmarked) [Cmpd 72]	-13.5%	9.07%	98.1%	-2.17%	-5.02%	53%	250 µM (≈ 122 µg/mL)	62.5 µM (≈ 30.5 µg/mL)	
N#CNC(=O)C(Cc1ccccc1)N1C(=O)/C(=C\c2ccc(-c3ccc(Cl)c(Cl)c3)o2)NC1=S (centres unmarked) [Cmpd 69]	0.13%	100%	99.2%	0.03%	0.65%	97.5%	250 µM (≈ 128 µg/mL)	15.6 µM (≈ 7.98 µg/mL)	
CCC(C(=O)O)N1C(=O)/C(=C\c2ccc(-c3ccc(Cl)c(Cl)c3)o2)NC1=S (centres unmarked) [Cmpd 44]	4.13%	97.2%	94%	-2.47%	4.53%	92.9%	>250 µM	250 µM (≈ 106 µg/mL)	
Cc1oc(=O)oc1COC(=O)C(Cc1ccccc1)N1C(=O)/C(=C\c2ccc(-c3ccc(Cl)c(Cl)c3)o2)NC1=S (centres unmarked) [Cmpd 64]	-0.01%	0.22%	-1.34%	0.71%	-1.48%	-3.34%	>250 µM	>250 µM	
O=C(O)C(Cc1ccccc1)N1C(=O)/C(=C\c2ccc(-c3ccccc3)o2)NC1=S (centres unmarked) [Cmpd 60]	2.29%	11.6%	18%	-2.55%	-5.71%	-8.8%	>250 µM	125 µM (≈ 52.3 µg/mL)	
O=C(O)[C@@H](Cc1ccccc1)N1C(=O)/C(=C\c2ccc(-c3ccc(Cl)c(Cl)c3)o2)NC1=S [Cmpd 47]	9.41%	107%	107%	-13.8%	84.4%	103%	250 µM (≈ 122 µg/mL)	7.8 µM (≈ 3.8 µg/mL)	
O=C([O-])C(Cc1ccccc1)N1C(=O)/C(=C\c2ccc(-c3cccc(Cl)c3)o2)NC1=S.[Na+] (centres unmarked) [Cmpd 67]	6.01%	4.51%	87.6%	0.37%	-4.15%	-7.41%	>250 µM	250 µM	
O=C(NS(=O)(=O)C(F)(F)F)C(Cc1ccccc1)N1C(=O)/C(=C\c2ccc(-c3ccc(Cl)c(Cl)c3)o2)NC1=S (centres unmarked) [Cmpd 58]	69.4%	98.7%	97.4%	0.23%	81.7%	94.5%	>250 µM	7.8 µM (≈ 4.82 µg/mL)	
CS(=O)(=O)NC(=O)C(Cc1ccccc1)N1C(=O)/C(=C\c2ccc(-c3ccc(Cl)c(Cl)c3)o2)NC1=S (centres unmarked) [Cmpd 57]	45.2%	96.4%	90.2%	3.18%	30.9%	58%	>250 µM	15.6 µM (≈ 8.81 µg/mL)	
O=C(O)[C@H](Cc1ccccc1)N1C(=O)/C(=C\c2ccc(-c3cc(C(F)(F)F)ccc3Cl)o2)NC1=S [Cmpd 53]	88.2%	95.5%	92.5%	-4.72%	92.3%	92.9%	>250 µM	15.6 µM (≈ 8.13 µg/mL)	
O=C(O)C(Cc1ccccc1)N1C(=O)/C(=C\c2ccc(-c3ccnc(Cl)c3)o2)NC1=S (centres unmarked) [Cmpd 70]	2.54%	16%	4.62%	-0.84%	-1.26%	-1.4%	>250 µM	125 µM (≈ 56.7 µg/mL)	
